The results in this text go back to ChEMBL document CHEMBL5236617, “Rapid Evolution of a Fragment-like Molecule to Pan-Metallo-Beta-Lactamase Inhibitors: Initial Leads toward Clinical Candidates” (J Med Chem, 2022).

The structures appear in SMILES notation. Activity calls are given as the source filed them. The rule behind the calls is not given here.

A short description of series [1]: Inhibition of GST-tagged bacterial beta-lactamase VIM-1 expressed in Escherichia coli BL21(DE3) using CCF2-FA as substrate by fluorescence assay. Also on record: species or system Bacteria.
The nature of series [2]: Inhibition of GST-tagged bacterial beta-lactamase IMP-1 expressed in Escherichia coli BL21(DE3) using CCF2-FA as substrate by fluorescence assay. Also on record: species or system Bacteria.
A short description of series [3]: Inhibition of GST-tagged bacterial beta-lactamase […] expressed in Escherichia coli BL21(DE3) using CCF2-FA as substrate by fluorescence assay. Also on record: species or system Bacteria.
Series [4] has as its system Serratia marcescens. The experiment in a line: Potentiation of imipenem-induced antibacterial activity against IMP-1 expressing Serratia marcescens assessed as imipenem MIC incubated for 22 to 24 hrs (reference value: 16 ug/ml). Format: functional. The following applies: time 22-24 hrs.
Series [5] concerns Escherichia coli. The experiment in a line: Potentiation of imipenem-induced antibacterial activity against NDM-1 expressing Escherichia coli assessed as imipenem MIC incubated for 22 to 24 hrs (reference value: 32 ug/ml). Format: functional. The following applies: time 22-24 hrs.
Series [6] deals with Klebsiella pneumoniae. The series can be described thus: Antibacterial activity against Klebsiella pneumoniae MB9249 expressing IMP-26 infected in cyclophosphamide treated DBA/2 mouse assessed as reduction in bacterial burden in spleen at 5 mg/kg, sc administered three times for 1 day and measured after 24 hrs post injection. Format: functional, organism-based.
In series [7] the test system is Klebsiella pneumoniae. The experiment in a line: Antibacterial activity against Klebsiella pneumoniae MB9249 expressing IMP-26 infected in cyclophosphamide treated DBA/2 mouse assessed as reduction in bacterial burden in kidney at 5 mg/kg, sc administered three times for 1 day and measured after 24 hrs post injection. Type of series: functional, organism-based.
Series [8] deals with Klebsiella pneumoniae. The experiment in a line: Potentiation of imipenem-induced antibacterial activity against VIM-1 expressing Klebsiella pneumoniae assessed as imipenem MIC incubated for 22 to 24 hrs (reference value: 16 ug/ml). Format: functional. The following applies: time 22-24 hrs.
The nature of series [9]: Selectivity ratio of MITC50 for NDM-1 expressing Escherichia coli to IC50 for GST-tagged bacterial beta-lactamase […].
A short description of series [10]: Selectivity ratio of MITC50 for VIM-1 expressing Klebsiella pneumoniae to IC50 for GST-tagged bacterial beta-lactamase VIM-1.
A short description of series [11]: Selectivity ratio of MITC50 for IMP-1 expressing Serratia marcescens to IC50 for GST-tagged bacterial beta-lactamase IMP-1.
The target in series [12] is Voltage-gated inwardly rectifying potassium channel KCNH2 (Homo sapiens, UniProt Q12809). The series can be described thus: Displacement of MK499 from human ERG.
Series [13] addresses Cytochrome P450 2D6 (Homo sapiens, UniProt P10635). The series can be described thus: Reversible inhibition of CYP2D6 (unknown origin). Type of series: ADME.
Series [14] in a line: AUC in mouse at 5 mg/kg, iv. Details: dose 5 mg/kg, route iv. Type of series: ADME, organism-based. The note with it: in vivo.
Series [15] is described as follows: Cmax in mouse at 50 mg/kg, sc. Type of series: ADME, organism-based. Details: dose 50 mg/kg, route sc. The following applies: in vivo.
Series [16] can be described thus: Tmax in mouse at 10 mg/kg, sc. Format: ADME, organism-based. The following applies: in vivo.
A short description of series [17]: AUC in mouse at 10 mg/kg, sc. Format: ADME, organism-based. Details: dose 10 mg/kg, route sc. The note with it: in vivo.
Series [18] in a line: MRT in mouse at 5 mg/kg, iv. Format: ADME, organism-based. The following applies: in vivo.
Series [19] addresses T1, Nuclear receptor subfamily 1 group I member 2 (Homo sapiens, UniProt O75469).
T1 sequence (O75469 whole entry): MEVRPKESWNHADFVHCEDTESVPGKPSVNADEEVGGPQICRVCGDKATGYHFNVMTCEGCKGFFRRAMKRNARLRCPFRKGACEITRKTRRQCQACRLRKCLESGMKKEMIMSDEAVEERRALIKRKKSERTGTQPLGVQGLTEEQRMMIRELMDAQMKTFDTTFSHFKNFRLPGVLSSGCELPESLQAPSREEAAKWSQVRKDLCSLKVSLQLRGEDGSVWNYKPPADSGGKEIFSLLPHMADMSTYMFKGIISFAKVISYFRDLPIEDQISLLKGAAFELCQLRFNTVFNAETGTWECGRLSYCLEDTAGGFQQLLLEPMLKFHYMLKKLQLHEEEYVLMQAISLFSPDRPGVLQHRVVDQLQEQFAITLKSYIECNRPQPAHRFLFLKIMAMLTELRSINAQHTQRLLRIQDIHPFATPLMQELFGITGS
The series can be described thus: Inhibition of human PXR.

The target of series [20] is CYP3A4 (Homo sapiens, UniProt P08684). The series can be described thus: in vitro.
Description: Selectivity ratio of time dependent inhibition of CYP3A4 (unknown origin) in presence of NADPH to time dependent inhibition of CYP3A4 (unknown origin) in absence of NADPH
Series [21] can be described thus: AUC in mouse at 50 mg/kg, sc. The note with it: in vivo. Also on record: dose 50 mg/kg, route sc. Type of series: ADME, organism-based.
The nature of series [22]: Plasma protein binding in Wistar Han rat assessed as unbound fraction. Format: ADME, cell-free.
Series [23] in a line: Plasma protein binding in C57BL/6 mouse assessed as unbound fraction. Type of series: ADME, cell-free.
Series [24] can be described thus: Volume of distribution at steady state in mouse at 5 mg/kg, iv. Format: ADME, organism-based. The following applies: in vivo, read-out: Vdss.
Series [25] addresses Cytochrome P450 3A4 (Homo sapiens, UniProt P08684). The experiment in a line: Reversible inhibition of CYP3A4 (unknown origin). Type of series: ADME.
In series [26] the target is T2, PXR (NR1I2) (Homo sapiens, UniProt O75469).
T2 sequence (O75469 whole entry): T1 sequence (O75469 whole entry)
The experiment in a line: Inhibition of human PXR at 30 uM relative to control.

In series [27] the target is Cytochrome P450 2C9 (Homo sapiens, UniProt P11712). The experiment in a line: Reversible inhibition of CYP2C9 (unknown origin). Format: ADME.
The nature of series [28]: Clearance in mouse at 5 mg/kg, iv. Format: ADME, organism-based. The following applies: in vivo.
Series [29] addresses Sodium channel protein type 5 subunit alpha (Homo sapiens, UniProt Q14524). The series can be described thus: Inhibition of Nav1.5 (unknown origin).
Series [30] is described as follows: Plasma protein binding in human assessed as unbound fraction. Format: ADME, cell-free.
Series [31] in a line: Cmax in mouse at 10 mg/kg, sc. Type of series: ADME, organism-based. Also on record: dose 10 mg/kg, route sc. The note with it: in vivo.
Series [32] can be described thus: Tmax in mouse at 50 mg/kg, sc. Type of series: ADME, organism-based. The following applies: in vivo.

Broadly, the IC50 is the concentration that gives 50% inhibition. For orientation: AUC means the area under the concentration-time curve, a measure of exposure. A higher AUC goes with high exposure. The Cmax is the peak of the concentration-time curve. Broadly, the Tmax is the time from dosing to the highest level. By MRT is commonly meant the average time that molecules of a dose stay in the body. As usually defined, the fraction unbound is free concentration divided by total concentration. Usually Emax stands for the maximal effect, on the per cent scale that the assay sets. By clearance is commonly meant a measure of how efficiently the substance is removed, as volume per time. A higher clearance goes with a high capacity for elimination.

Sequence of Cytochrome P450 2D6 (P10635 whole entry): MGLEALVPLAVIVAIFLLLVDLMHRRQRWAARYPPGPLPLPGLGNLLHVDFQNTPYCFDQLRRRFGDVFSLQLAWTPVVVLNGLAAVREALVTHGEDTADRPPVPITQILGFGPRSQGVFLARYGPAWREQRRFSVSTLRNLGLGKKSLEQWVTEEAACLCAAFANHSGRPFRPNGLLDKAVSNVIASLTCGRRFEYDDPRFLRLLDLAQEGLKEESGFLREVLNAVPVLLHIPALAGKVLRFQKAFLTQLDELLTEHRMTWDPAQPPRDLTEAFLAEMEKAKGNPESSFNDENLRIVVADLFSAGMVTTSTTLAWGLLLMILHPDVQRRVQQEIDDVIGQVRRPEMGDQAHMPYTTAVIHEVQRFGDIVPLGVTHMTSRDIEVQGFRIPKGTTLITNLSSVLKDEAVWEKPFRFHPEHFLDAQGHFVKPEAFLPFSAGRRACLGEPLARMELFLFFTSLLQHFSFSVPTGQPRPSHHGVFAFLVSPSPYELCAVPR
Sequence of Cytochrome P450 2C9 (P11712 whole entry): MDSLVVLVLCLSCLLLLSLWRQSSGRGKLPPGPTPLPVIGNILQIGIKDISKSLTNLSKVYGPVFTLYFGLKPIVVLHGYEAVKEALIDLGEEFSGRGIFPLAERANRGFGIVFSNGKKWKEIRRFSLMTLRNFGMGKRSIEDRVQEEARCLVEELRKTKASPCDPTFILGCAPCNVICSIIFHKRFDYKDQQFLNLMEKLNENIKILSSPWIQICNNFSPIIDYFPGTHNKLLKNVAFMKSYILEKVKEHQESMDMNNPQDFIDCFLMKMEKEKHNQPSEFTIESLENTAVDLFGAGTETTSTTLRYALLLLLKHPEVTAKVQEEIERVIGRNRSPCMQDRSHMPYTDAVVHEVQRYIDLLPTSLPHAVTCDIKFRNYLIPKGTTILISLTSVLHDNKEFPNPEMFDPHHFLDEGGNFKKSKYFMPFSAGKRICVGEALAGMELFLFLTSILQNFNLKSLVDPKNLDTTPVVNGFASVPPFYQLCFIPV
Sequence of Voltage-gated inwardly rectifying potassium channel KCNH2 (Q12809 whole entry): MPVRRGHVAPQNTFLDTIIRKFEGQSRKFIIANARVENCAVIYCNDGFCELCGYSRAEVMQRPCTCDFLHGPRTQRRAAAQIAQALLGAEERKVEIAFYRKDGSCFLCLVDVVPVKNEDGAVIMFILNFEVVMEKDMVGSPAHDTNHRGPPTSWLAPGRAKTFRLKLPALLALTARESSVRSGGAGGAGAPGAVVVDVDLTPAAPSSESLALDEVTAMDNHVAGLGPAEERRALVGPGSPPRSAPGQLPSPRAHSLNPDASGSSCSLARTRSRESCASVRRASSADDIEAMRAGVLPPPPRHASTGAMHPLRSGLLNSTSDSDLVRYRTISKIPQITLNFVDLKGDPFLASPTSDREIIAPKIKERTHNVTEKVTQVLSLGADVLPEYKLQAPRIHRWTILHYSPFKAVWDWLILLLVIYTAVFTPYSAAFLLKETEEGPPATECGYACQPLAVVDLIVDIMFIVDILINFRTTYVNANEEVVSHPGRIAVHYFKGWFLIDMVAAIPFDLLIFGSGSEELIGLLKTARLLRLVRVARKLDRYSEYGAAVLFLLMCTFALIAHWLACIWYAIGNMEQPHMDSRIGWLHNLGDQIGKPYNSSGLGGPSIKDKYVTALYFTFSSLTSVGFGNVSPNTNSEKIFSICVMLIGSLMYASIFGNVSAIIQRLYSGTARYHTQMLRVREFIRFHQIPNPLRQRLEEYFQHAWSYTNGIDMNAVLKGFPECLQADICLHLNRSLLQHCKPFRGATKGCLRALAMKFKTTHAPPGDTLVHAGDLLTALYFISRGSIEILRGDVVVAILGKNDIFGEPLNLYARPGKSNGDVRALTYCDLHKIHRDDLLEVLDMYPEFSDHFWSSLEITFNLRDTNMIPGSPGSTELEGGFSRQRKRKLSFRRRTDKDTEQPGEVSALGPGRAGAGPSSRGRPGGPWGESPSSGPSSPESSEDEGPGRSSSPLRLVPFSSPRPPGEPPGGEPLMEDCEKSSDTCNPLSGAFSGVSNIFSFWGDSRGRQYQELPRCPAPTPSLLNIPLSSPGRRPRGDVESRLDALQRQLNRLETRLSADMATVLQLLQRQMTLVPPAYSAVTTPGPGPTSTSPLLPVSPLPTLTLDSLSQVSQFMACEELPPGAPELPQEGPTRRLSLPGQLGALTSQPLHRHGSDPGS
Sequence of CYP3A4 (P08684 whole entry): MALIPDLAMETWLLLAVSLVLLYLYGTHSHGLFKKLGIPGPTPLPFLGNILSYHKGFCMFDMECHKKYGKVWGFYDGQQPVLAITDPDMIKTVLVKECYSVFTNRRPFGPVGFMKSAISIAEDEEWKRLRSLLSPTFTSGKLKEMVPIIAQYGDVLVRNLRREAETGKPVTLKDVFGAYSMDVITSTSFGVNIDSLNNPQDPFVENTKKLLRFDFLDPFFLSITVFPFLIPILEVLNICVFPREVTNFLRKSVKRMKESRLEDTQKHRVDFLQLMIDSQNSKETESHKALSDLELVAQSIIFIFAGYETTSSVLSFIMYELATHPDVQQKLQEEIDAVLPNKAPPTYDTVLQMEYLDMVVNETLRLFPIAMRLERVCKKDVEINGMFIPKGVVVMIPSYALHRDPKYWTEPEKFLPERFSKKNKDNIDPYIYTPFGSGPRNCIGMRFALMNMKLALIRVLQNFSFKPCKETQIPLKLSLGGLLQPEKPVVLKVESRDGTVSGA
Sequence of Cytochrome P450 3A4 (P08684 whole entry): as above
Sequence of Sodium channel protein type 5 subunit alpha (Q14524 whole entry): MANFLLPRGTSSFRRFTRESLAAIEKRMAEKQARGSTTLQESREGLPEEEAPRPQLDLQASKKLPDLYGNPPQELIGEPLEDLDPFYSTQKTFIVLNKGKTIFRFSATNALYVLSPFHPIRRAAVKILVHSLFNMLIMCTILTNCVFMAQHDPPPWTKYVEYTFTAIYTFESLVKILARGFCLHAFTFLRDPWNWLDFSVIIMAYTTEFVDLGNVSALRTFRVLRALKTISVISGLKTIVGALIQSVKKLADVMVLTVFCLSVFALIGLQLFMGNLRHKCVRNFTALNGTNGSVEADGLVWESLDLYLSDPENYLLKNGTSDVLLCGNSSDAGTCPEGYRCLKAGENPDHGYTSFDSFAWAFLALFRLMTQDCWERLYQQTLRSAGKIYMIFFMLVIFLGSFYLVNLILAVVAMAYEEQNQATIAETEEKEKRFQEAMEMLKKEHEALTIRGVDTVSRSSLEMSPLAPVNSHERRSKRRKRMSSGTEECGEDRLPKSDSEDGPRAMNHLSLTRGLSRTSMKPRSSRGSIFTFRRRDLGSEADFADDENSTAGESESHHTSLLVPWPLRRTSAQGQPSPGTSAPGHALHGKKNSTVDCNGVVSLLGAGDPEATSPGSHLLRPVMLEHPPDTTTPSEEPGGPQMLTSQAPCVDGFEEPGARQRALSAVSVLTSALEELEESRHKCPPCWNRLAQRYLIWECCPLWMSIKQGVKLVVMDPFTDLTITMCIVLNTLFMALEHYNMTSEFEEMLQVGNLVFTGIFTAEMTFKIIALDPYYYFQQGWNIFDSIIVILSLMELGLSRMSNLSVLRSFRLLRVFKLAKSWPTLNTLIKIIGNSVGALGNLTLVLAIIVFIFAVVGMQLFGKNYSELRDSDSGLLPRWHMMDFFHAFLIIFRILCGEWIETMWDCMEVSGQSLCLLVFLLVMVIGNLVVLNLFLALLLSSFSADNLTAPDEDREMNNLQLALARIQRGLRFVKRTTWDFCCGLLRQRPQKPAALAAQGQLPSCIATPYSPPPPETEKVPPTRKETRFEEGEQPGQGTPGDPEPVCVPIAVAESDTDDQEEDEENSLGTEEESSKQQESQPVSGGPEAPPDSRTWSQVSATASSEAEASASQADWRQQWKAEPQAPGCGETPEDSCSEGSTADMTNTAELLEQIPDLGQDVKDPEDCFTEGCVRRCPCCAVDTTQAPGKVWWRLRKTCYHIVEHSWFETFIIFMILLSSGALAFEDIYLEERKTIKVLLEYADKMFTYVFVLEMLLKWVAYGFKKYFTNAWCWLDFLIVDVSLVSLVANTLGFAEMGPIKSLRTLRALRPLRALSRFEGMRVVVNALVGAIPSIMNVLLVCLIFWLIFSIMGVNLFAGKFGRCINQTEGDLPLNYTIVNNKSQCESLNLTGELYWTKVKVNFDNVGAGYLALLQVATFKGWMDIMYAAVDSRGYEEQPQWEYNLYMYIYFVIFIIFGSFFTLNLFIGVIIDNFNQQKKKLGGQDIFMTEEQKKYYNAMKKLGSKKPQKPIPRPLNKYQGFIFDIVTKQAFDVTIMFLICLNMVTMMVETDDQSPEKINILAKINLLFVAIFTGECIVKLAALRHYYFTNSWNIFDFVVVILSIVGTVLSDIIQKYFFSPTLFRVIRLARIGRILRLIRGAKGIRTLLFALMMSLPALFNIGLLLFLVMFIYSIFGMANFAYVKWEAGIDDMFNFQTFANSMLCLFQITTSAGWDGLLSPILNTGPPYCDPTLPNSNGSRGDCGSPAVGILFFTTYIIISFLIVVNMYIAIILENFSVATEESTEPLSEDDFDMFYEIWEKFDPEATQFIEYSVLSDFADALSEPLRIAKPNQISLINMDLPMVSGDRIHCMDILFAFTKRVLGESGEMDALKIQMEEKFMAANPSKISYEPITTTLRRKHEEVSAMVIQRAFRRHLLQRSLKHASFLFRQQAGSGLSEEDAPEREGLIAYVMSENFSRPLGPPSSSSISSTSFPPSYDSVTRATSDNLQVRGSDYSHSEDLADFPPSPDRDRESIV

As to `CNS(=O)(=O)c1cccc(-c2ccc(C)cc2)c1-c1nnn[nH]1`, the 50% inhibitory concentration (IC50) in [1] is 18 µM; in series [2] it was over 20 µM; in [3], 15.8 µM.

As to `NS(=O)(=O)c1cccc(-c2ccnc(CO)c2)c1-c1nn[nH]n1`, the MITC95 is 50 µM in [4] and 0.39 µM in series [5].

Take `C[C@@H](O)[C@H]1C(=O)N2C(C(=O)O)=C(SCCNC=N)C[C@H]12`: the outcome in [6] and in series [7] was Active.

For the molecule `Cc1ccc(-c2cccc(C(=O)O)c2-c2nnn[nH]2)cc1`, the concentration for half-maximal inhibition (IC50) in series [1] amounted to 6.96 µM; in series [2] it was 2.41 µM; in series [3], 3.17 µM.

Regarding `NCCNC(=O)C[N+]12CC[N+](Cc3ccc(-c4ccc(C[C@H](C(=O)O)[C@H](Cc5ccccc5)C(=O)O)cc4)cc3)(CC1)CC2`, the results for the IC50 in [1] and in series [3] were 0.0028 µM and over 0.2 µM, respectively.

For the molecule `NS(=O)(=O)c1cccc(-c2ccncc2)c1-c1nn[nH]n1`, the values for the MITC95 in series [8], in [4] and in series [5] were 25 µM, 9.37 µM and 0.45 µM, respectively. In addition, the Selectivity ratio came out at 12 in series [9], 87 in series [10] and 19 in series [11]. The IC50 was found to be 0.285 µM in [1], 0.485 µM in [2] and 0.036 µM in series [3].

`CCCCc1nc2ccc(O)cc2c(=O)n1Cc1ccc(-c2ccccc2-c2nnn[nH]2)cc1`: the IC50 was found to be 0.013 µM in [1] and 0.052 µM in series [3].

On to `NS(=O)(=O)c1nccc(-c2ccc(CO)cc2)c1-c1nnn[nH]1`, for which the half-inhibitory concentration (IC50) in [12] was over 60 µM; in series [13], over 30 µM; in series [19] it was over 30 µM; in series [25] it was over 30 µM; in series [27], over 30 µM; in series [29], over 30 µM. Further, the AUC was 27.1 µM·h in [14], 27.4 µM·h in series [17] and 111 µM·h in series [21]. In addition, the Cmax turned out to be 69.1 µM in series [15] and 13.4 µM in series [31]. Besides, the Tmax in [16] worked out at 49.8 min; in [32], 30 min. The molecule also came in with a mean residence time MRT in [18] of 312 min. Besides, in series [20], the IC50 shift was 1. In addition, the fraction unbound in series [22] is 0.3; in series [23] it was 0.43; in [30] it was 0.23. Besides, in series [24], the Vd is 2.97 L/kg. Also, the Emax at 30 µM in series [26] worked out at 1.94%. Moreover, in series [28], the clearance was 0.56 L/h/kg.

Consider `NS(=O)(=O)c1cccc(-c2ccccn2)c1-c1nn[nH]n1`, for which the MITC95 in series [8] came to 25 µM; in [5], 0.78 µM. Besides, the figures for the half-maximal inhibitory concentration (IC50) in series [1], in series [2] and in [3] were 0.09 µM, 0.33 µM and 0.003 µM, respectively.

As for `NS(=O)(=O)c1cccc(-c2cccnc2)c1-c1nn[nH]n1`, the values for the MITC95 in [8], in series [4] and in series [5] were 50 µM, 50 µM and 0.39 µM, respectively. Further, the Selectivity ratio stood at 16 in series [9], 185 in series [10] and 28 in [11]. The IC50 is 0.269 µM in series [1], 1.78 µM in [2] and 0.024 µM in series [3].

Consider `Nc1cc(-c2nnn[nH]2)c(S(N)(=O)=O)cc1S(N)(=O)=O`, for which the IC50 was 0.007 µM in series [1], 0.017 µM in series [2] and 0.0033 µM in series [3].
